Biological target: T1, Kv2.1-K356C (Rattus norvegicus, UniProt P15387, K360C)
T1 construct: expressed in transfected cells; host or cells: Xenopus laevis oocytes (cRNA from pGA1)
T1 sequence (P15387 1-857 K360C): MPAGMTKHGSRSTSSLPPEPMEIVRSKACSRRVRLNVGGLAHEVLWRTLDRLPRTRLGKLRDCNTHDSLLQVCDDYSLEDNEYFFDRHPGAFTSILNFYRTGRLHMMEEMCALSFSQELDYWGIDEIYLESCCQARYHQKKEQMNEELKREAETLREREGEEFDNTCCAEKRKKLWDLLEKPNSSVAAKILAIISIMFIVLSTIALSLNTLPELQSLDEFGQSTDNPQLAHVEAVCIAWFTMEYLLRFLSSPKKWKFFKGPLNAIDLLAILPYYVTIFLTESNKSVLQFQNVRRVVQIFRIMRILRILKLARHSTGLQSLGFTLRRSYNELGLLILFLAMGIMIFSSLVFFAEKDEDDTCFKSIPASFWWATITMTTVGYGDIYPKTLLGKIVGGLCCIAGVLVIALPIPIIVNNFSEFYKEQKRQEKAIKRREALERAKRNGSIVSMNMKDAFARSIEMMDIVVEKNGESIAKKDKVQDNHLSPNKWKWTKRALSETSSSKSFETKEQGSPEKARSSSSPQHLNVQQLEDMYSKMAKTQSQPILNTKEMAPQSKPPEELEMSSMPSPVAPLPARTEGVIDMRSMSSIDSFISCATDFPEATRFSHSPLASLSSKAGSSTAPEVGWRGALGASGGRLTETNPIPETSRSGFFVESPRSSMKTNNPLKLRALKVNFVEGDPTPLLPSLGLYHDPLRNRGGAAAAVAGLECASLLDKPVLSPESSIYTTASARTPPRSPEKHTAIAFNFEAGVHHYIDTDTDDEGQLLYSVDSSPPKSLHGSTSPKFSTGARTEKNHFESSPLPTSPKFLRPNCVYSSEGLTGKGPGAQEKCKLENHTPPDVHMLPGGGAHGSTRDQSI
Assay: Cysteine protection experiments, K356C variant of Kv2.1 in oocytes
Format: cell-based
Excerpt: Kv2.1 mutants were constructed using the QuickChange Multi Site-Directed Mutagenesis Kit (Stratagene, La Jolla, Calif.). Mutant Kv2.1 genes (in the pGA1 oocyte expression vector for oocyte expression) were sequenced in their entirety to confirm appropriate mutations and check for inadvertent mutations, and then subcloned into a wild-type pGA1 backbone. For oocyte expression, Kv3.4 was in pBF1, Kv4.2 was in pRAT. cRNA transcripts were produced from SacII-linearized (Kv2.1), Mlullinearized (Kv3.4) and Not1-linearized (Kv4.2) DNA templates using the T3 (Kv2.1), SP6 (Kv3.4) and T7 (Kv4.2) mMessage mMachine kits (Ambion, Austin, Tex.). cRNA was quantified by spectrophotometry and its size integrity verified by gel electophoresis. Defolliculated stage V and VI Xenopus laevis oocytes (purchased from Nasco, Grand Island, N.Y.) were injected with 5 ng of cRNA encoding Kv2.1, Kv3.4 or Kv4.2. Chinese Hamster Ovary (CHO) cells were transfected with 0.25 μg Kv2.1 cDNA, 2 μg blank plasmid and 2 μg Green fluorescent Protein in pBOB using Supetfect transfection reagent (Qiagen) 24 hours before whole-cell voltage clamp studies.
Whole-cell two-electrode voltage-clamp (TEVC) recordings were performed on X laevis oocytes expressing cloned Kv2.1, Kv3.4 or Kv4.2 using a Warner OC-725C amplifier and pClamp9 (Axon Instruments, Foster City, Calif.) software. Oocytes were bathed in a small-volume Warner oocyte bath and viewed with a Fisher dissection microscope. Bath solution for whole-cell oocyte recordings was (in mM): 96 NaCl, 4 KCl, 0.7 MgCl2, 1 CaCl2, 10 HEPES (pH 7.4); whole-cell oocyte TEVC pipettes were of 0.2-2 M resistance when filled with 3 M KCl. Experiments were performed 24-48 hours after cRNA injection. For assessment of current-voltage relationships in the absence or presence of dabco derivatives, oocytes were held at −80 mV, stepped for 2 seconds at voltages between −80 mV and +60 mV in 20 mV steps (Kv2.1) or between −80 and +50 mV in 10 mV steps (Kv3.4), then held for 500 ms at −40 mV before returning to the holding potential. For assessment of block during wash-in of dabco derivatives at a single voltage, oocytes were held at −80 mV, and repetitively stepped to 0 mV for 2 s with an interpulse interval of 10 s or 60 s as indicated. A range of concentrations of dabco or dabco derivatives were washed in via the bath solution during repetitive single-voltage pulses (after an initial period of 5 pulses with control solution to ensure current stabilization) until equilibrium block was achieved, to establish dose-responses. Inhibited currents are compared to the current at the end of 5-pulse control period, thus some bar graphs show ‘control’ current values slightly less than 1, and with an error bar, to show how much currents deviate in the absence of drug. Washout was performed after the highest concentration of blocker was washed in. In cases where washout was achieved, only those recordings in which current returned to within 10% of original current level were used for construction of dose-response curves. For cysteine protection experiments using the K356C variant of Kv2.1, a dabco derivative (JC638.2a) was washed in to equilibrium block, followed by wash-in of a solution containing both JC638.2a and MTSET until no further changes in current were seen; following this the solution was washed out with standard bath solution. As controls for this protection analysis, JC638.2a or MTSET were washed in alone until equilibrium block, then washed out.

[1] = K356C-Kv2.1, JC638.2α plus MTSET

c1cc(C[N+]23CCN(CC2)CC3)ccc1C[N+]12CCN(CC1)CC2 [JC638.2α, α,α′-[bis(4-aza-1-azoniabicyclo[2.2.2]octanyl)]p-xylene]
current inhibition, administered alone (K356C mutant): 62±3%
reversibility of block with washout (K356C mutant, administered alone): reversed with washout
current inhibition, co-application with MTSET after pre-application [1]: 84±1%
reversibility with washout, co-application with MTSET [1]: completely reversible with washout
